Results reported in PMC10106510 (European Journal of Medicinal Chemistry, 2023).

Columns and labels:
[1] = test system: SARS-CoV-2 infected Caco-2 cells (IFN-α, IL-6, OAS1 mRNA); assay type: cell-based, Human; settings: 20 μg/mL
Balb/c mice [2] = settings: 25, 50, and 100 mg/kg, intraperitoneal
Balb/c mice [3] = test system: Balb/c mice
[4] = test system: SARS-CoV-2 RNA (ORF1b, Spike) in infected Caco-2 cells; assay type: cell-based
SARS-CoV-2 PLpro [5] = molecular target: T1, SARS-CoV-2 PLpro (Severe acute respiratory syndrome coronavirus 2, UniProt P0DTD1); settings: cited from earlier work
MERS-CoV PLpro = settings: cited from earlier work
CYP3A4 = CYP3A4 (Homo sapiens, UniProt P08684)
Sequence of CYP3A4 (P08684 whole entry): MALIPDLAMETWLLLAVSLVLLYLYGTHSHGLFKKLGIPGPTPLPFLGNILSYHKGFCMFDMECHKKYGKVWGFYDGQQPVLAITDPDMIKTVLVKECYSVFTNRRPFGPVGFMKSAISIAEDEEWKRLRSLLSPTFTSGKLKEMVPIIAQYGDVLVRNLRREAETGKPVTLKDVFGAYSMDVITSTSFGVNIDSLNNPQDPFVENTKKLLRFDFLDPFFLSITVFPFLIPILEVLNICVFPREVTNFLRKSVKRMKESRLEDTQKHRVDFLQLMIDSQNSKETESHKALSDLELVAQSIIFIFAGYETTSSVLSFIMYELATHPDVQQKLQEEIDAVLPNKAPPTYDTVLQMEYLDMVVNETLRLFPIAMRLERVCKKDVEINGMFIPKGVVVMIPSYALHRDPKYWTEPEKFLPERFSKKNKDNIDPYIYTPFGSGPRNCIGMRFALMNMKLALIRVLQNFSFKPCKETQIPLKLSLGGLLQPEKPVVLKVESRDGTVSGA

SARS-CoV-2 PLpro [6] = molecular target: T1, SARS-CoV-2 PLpro; assay: Papain-like protease; settings: variable results in dose-dependent study, IC50 not determined

COc1ccc2[nH]c3c(c2c1)C[C@]1(OC)CC[C@H]2c4[nH]c5ccccc5c4CCN2[C@@H]1C3 [SIMR3030]
IL-6 mRNA expression ([1]; at 1, 3 and 12 h): significantly reduced
OAS1 mRNA expression ([1]; at 1, 3 and 12 h): significantly reduced
IFN-α mRNA expression ([1]; at 1 and 3 h): significantly reduced
signs of toxicity or body weight loss, single dose (Balb/c mice [2]): no signs of toxicity or body weight loss
platelet population (Balb/c mice [3]; 25 mg/kg multiple dose, hematological analysis): slight reduction
signs of toxicity or weight loss, multiple dose (Balb/c mice [3]; 12.5 and 25 mg/kg, intraperitoneal, daily for 14 days): no signs of toxicity or weight loss
microscopic investigation of organs (liver, spleen, kidneys, heart, lungs) (Balb/c mice [3]; H&E staining, 12.5 and 25 mg/kg multiple dose): no histologic variations and no signs of toxic injury
Spike RNA inhibition ([4]; 20 μg/mL, 1, 6 and 12 h): observed only after 6 and 12 h
viral ORFb1 RNA inhibition ([4]; 20 μg/mL, at 1, 6 and 12 h): more than 70%

Cc1ccc(N)cc1C(=O)N[C@H](C)c1cccc2ccccc12 [GRL0617]
inhibitory activity in a cell-based assay (SARS-CoV-2 PLpro [5]): moderate to weak
activity against MERS-CoV PLpro (MERS-CoV PLpro): inactivity

CC1(C)[C@H]2COc3ccc4ccccc4c3[C@H]2N=C2SC=C(c3ccc(S(=O)(=O)N4CCOCC4)cc3)N21 [SIMR1493]
CYP3A4 IC50 (CYP3A4): 134 µM

COC(=O)C[C@@H]1COc2ccccc2[C@H](C(=O)NC(C)(C)C)N(CCc2c[nH]c3ccc(OC)cc23)C(=O)[C@@H]1c1nnc(-c2cccc(C(F)(F)F)c2)o1 [SIMR2304]
PLpro inhibitory activity, initial screening (SARS-CoV-2 PLpro [6]): very strong inhibitory activity
